This data set is described as follows: Human HepG2 cell viability assay in 384 well format. The conditions noted are these: HepG2 cells, read-out: Inhibition. Format: toxicity, cell-based. Also noted: dose 125 nL, time 70.5 hour; cytotoxicity at 70.5 h: concentration not given beside the values.
`CCN1CCN(Cc2nc(CC(C)C)no2)CC1`: the cytotoxicity at 70.5 h was 19.9%.
The result for `COc1cccc(CNCc2c(C)nn(C)c2N(C)C)c1` reads 0.816%.
As for `O=C(c1cccc2cccnc12)N1CCCC(n2ccnc2)C1` (configuration not stated), the cytotoxicity at 70.5 h was -5.33%.
Turning to `Cc1cc(NC(=O)CN2CCCC(Cn3nc(C)nc3C)C2)n(C)n1` (configuration not stated), the cytotoxicity at 70.5 h is -2.11%.
Regarding `CCc1nc(C2CCCN2CC(=O)NCCOc2ccccc2)no1` (configuration not stated), the cytotoxicity at 70.5 h was 11.4%.
For `Cc1cc(C)n(CC2CN(Cc3ccccn3)CCO2)n1` (configuration not stated), the cytotoxicity at 70.5 h worked out at 1.96%.
In the case of `COCCOc1cccc(CNCc2c(C)nn(C)c2N(C)C)c1`, the cytotoxicity at 70.5 h was -2.1%.
For the compound `Cn1cc(Cl)cc1C(=O)N1CCCN(Cc2nccn2C)CC1`, the cytotoxicity at 70.5 h was -1.83%.
In the case of `Cc1noc(C)c1CNC(=O)N(C)C1CCN(c2ccccc2)C1=O` (configuration not stated), the cytotoxicity at 70.5 h was -2.2%.
On to `CCn1ccnc1CN1CCN(CC(=O)NC2CCOCC2)CC1`, for which the cytotoxicity at 70.5 h worked out at 25.6%.
Consider `COCCCNC(=O)Nc1ccc(-n2cncn2)c(C(F)(F)F)c1`, for which the cytotoxicity at 70.5 h is -5.91%.
For `CN(C(=O)NCCN1CCOCC1)C1CCN(c2ccccc2)C1=O` (configuration not stated), the cytotoxicity at 70.5 h was -14.1%.
With `Cc1ccccc1-c1noc(CN2CCc3cncnc3C2)n1`, the cytotoxicity at 70.5 h was -11.1%.
In the case of `Cc1ccc(NC2CCN(C(=O)CCn3nc(C)cc3C)CC2)nn1`, the cytotoxicity at 70.5 h was -14.3%.
Turning to `O=C(NCCCNc1ccc(C(F)(F)F)cn1)c1ccc(F)cc1`, the cytotoxicity at 70.5 h is -18.9%.
Turning to `COc1ccc(C(=O)NCCCNc2ccc(C(F)(F)F)cn2)cc1`, the cytotoxicity at 70.5 h is -17.2%.
As for `Cc1ccc(C(=O)NCc2cccnc2N(C)C)o1`, the cytotoxicity at 70.5 h was -12.1%.
Consider `Cc1cc(C(=O)NCc2cccnc2N(C)C)c(C)o1`, for which the cytotoxicity at 70.5 h was 14.3%.
Under `COCCOc1ccc(NC(=O)N2CCCC2c2ccsc2)cn1` (configuration not stated) stands -5.25%.
Under `COc1c(C)cnc(CN(C)C(=O)c2ccccn2)c1C` stands 15.4%; under `COc1c(C)cnc(CN(C)C(=O)c2ccccc2O)c1C`, 0.1%; under `CC(NC(=O)NCCCOc1ccccc1F)c1nncn1C` (configuration not stated), -7.39%.
Under `Cc1nn(C)c(C)c1NC(=O)CN1CCOC(Cn2cccn2)C1` (configuration not stated) stands -1.52%.
Regarding `Cc1cnn(C2CCCN(C(=O)COc3ccc(C(N)=O)cc3)C2)c1` (configuration not stated), the cytotoxicity at 70.5 h was -9.97%.
Regarding `O=C(c1ccccc1N1CCOCC1)N1CCCC1Cn1cccn1` (configuration not stated), the cytotoxicity at 70.5 h is -4.2%.
Turning to `CCc1nccn1C1CCCN(C(=O)c2cnc3onc(C)c3c2)C1` (configuration not stated), the cytotoxicity at 70.5 h is -2.35%.
Take `NC(=O)c1cccc(OCC(=O)N2CCCC(n3cccn3)C2)c1` (configuration not stated): the cytotoxicity at 70.5 h is 3.84%.
For the compound `Cc1cc(C)n(C2CCCN(C(=O)c3c[nH]c(=O)c(Cl)c3)C2)n1` (configuration not stated), the cytotoxicity at 70.5 h is -8.77%.
As for `Cc1nc(C)n(C2CCCN(C(=O)c3cccnc3NC(C)C)C2)n1` (configuration not stated), the cytotoxicity at 70.5 h is -9.03%.
Regarding `Cc1nc(C)n(C2CCCN(C(=O)c3cccc4[nH]ncc34)C2)n1` (configuration not stated), the cytotoxicity at 70.5 h is -6.19%.
On to `CCCc1n[nH]c(C2CN(Cc3nnc(C4CC4)n3C)CCO2)n1` (configuration not stated), for which the cytotoxicity at 70.5 h was -5.29%.
Regarding `Cc1oc(-c2ccco2)nc1CC(=O)N1CCN(CC(C)O)CC1` (configuration not stated), the cytotoxicity at 70.5 h amounted to 11.6%.
The result for `CC(C)c1nc(CN2CCCC(O)C2)cs1` (configuration not stated) reads 13.1%.
Under `CNC(=O)CN1CCCC(Cc2ccccc2OC)C1` (configuration not stated) stands 5.69%; under `Cc1oc(-c2ccco2)nc1CC(=O)N1CCC(CCO)C1` (configuration not stated), -11%.
As to `CCn1ncc2c1CCCC2NCc1ccc(C)s1` (configuration not stated), the cytotoxicity at 70.5 h was -4.74%.
Under `Cc1c(Cl)c(CN2CCCC2Cn2cncn2)nc2ccccc12` (configuration not stated) stands -6.2%; under `CC(C)c1nccn1C1CCCN(C(=O)c2ccc3c(c2)COC3)C1` (configuration not stated), -8.53%.
`COc1ccc(Cl)cc1CS(=O)(=O)CC(=O)N(C)Cc1ccccc1F`: the cytotoxicity at 70.5 h is -12.1%.
For `Cc1csc(CNC(=O)N(C)Cc2ccc3c(c2)OCCO3)n1`, the cytotoxicity at 70.5 h is -10.6%.
Regarding `CCN(Cc1ccc2c(c1)OCO2)C(=O)NCc1nc(C)cs1`, the cytotoxicity at 70.5 h was -9.62%.
Regarding `CCN(Cc1ccc2c(c1)OCCO2)C(=O)NCc1csc(C)n1`, the cytotoxicity at 70.5 h was -9.9%.
With `CCOc1ccc(CC(CNC(=O)c2ccco2)C(N)=O)cc1` (configuration not stated), the cytotoxicity at 70.5 h was -6.1%.
As for `COc1ccccc1CC1CCCN(CC(=O)NC2CC2)C1` (configuration not stated), the cytotoxicity at 70.5 h was -8.21%.
The result for `CNC(=O)NC(=O)CN1CCCC(Cc2ccccc2OC)C1` (configuration not stated) reads -6.62%.
As to `CC(C)c1nnc2n1CCN(C(=O)c1ccc(OCC3CC3)cc1)C2`, the cytotoxicity at 70.5 h is -6.55%.
As for `Cc1cc(NC(=O)CN2CCn3c(nnc3C(C)C)C2)on1`, the cytotoxicity at 70.5 h was -0.984%.
`CC(C)c1nnc2n1CCN(C(=O)c1ccc(S(C)(=O)=O)cc1)C2`: the cytotoxicity at 70.5 h is -5.36%.
Turning to `Cc1nc(CN2CCCC(N(C)Cc3nc(C)c(C)o3)C2)no1` (configuration not stated), the cytotoxicity at 70.5 h is -2.87%.
Take `Cc1nc(CN2CCCN(CC(=O)Nc3ccncc3)CC2)no1`: the cytotoxicity at 70.5 h came to 5.91%.
On to `Cc1nc(CN2CCCC(N(C)Cc3cnc(C)s3)C2)no1` (configuration not stated), for which the cytotoxicity at 70.5 h is -1.22%.
Under `Cc1cc(NC(=O)CN2CCn3c(nnc3-c3ccccc3)C2)no1` stands -1.17%.
The result for `Cc1cc(NC(=O)CCN2CCn3c(nnc3C3CC3)C2)no1` reads -11.7%; that for `CCc1nc(CN2CCOC(CN(C)c3cccnn3)C2)cs1` (configuration not stated), -7.04%; that for `Cc1ccccc1-c1noc(CN2CC(n3cccn3)C2)n1`, -5.02%.
On to `CCOc1ccccc1-c1noc(CN2CCN(CCOC)CC2)n1`, for which the cytotoxicity at 70.5 h is -6.13%.
With `CC(Cc1cccs1)C(=O)NCc1cccc(N2CCCC2=O)c1` (configuration not stated), the cytotoxicity at 70.5 h was -8.97%.
Turning to `O=C(c1cccc2ncccc12)N1CCCN(c2cccnn2)CC1`, the cytotoxicity at 70.5 h was -11.1%.
The result for `Cc1cc(C)n(CC2CCCCN2CC(=O)N(C)Cc2ccco2)n1` (configuration not stated) reads 6.64%.
In the case of `CCc1nnc(CN2CCCN(C(=O)c3ccccn3)CC2)o1`, the cytotoxicity at 70.5 h was -10.8%.
As for `CCc1nc(C2CCCN2Cc2nc(Cc3ccccc3)no2)no1` (configuration not stated), the cytotoxicity at 70.5 h is -0.88%.
Regarding `Cc1ncc(CN2CCOC(CN(C)c3cccnn3)C2)s1` (configuration not stated), the cytotoxicity at 70.5 h is -9.59%.
Consider `CCc1noc(CN2CCN(C(=O)c3ccccn3)CC2)n1`, for which the cytotoxicity at 70.5 h was -7.01%.
For `COc1ccc(Br)c(C(=O)N2CCCC(c3nc(C)no3)C2)c1` (configuration not stated), the cytotoxicity at 70.5 h is -9.43%.
Turning to `CC(=O)Nc1nc(C(=O)NC(C)c2ccc(F)c(F)c2)cs1` (configuration not stated), the cytotoxicity at 70.5 h was -7.42%.
In the case of `CNS(=O)(=O)c1ccc(CNC(=O)NCC2CCC2)cc1`, the cytotoxicity at 70.5 h was -8.5%.
Under `CC(=O)Nc1nc(C(=O)NC(C)c2ccc(C#N)cc2)cs1` (configuration not stated) stands -7.27%; under `Cc1noc(C2CCCN(C(=O)c3cncc(Br)c3)C2)n1` (configuration not stated), -10.8%; under `CCC(O)CN(CC(=O)NC(=O)NC1CC1)c1ccccc1` (configuration not stated), -6.3%.
Under `CCNC(=O)NC(=O)CN(CC(C)O)c1ccccc1` (configuration not stated) stands -7.42%; under `CCOC(CC)C(=O)NCc1cccc(N2CCCCC2=O)c1` (configuration not stated), -6.54%.
The result for `O=c1n(CCSCc2ccccc2Cl)nc2ccccn12` reads -6.77%; that for `Cc1ccc(CSCCn2nc3ccccn3c2=O)cc1`, -1.35%.
For the compound `O=C(Cc1ccc2c(c1)CCO2)N1CCCC(n2cccn2)C1` (configuration not stated), the cytotoxicity at 70.5 h is -12.1%.
Under `NS(=O)(=O)c1ccc(CC(=O)N2CCCC(n3cccn3)C2)cc1` (configuration not stated) stands -7.64%; under `Cc1noc(C2CCCN(C(=O)c3ccc(Cl)cc3F)C2)n1` (configuration not stated), -7.02%; under `O=C(Cc1cccc2cccnc12)N1CCCN(c2cccnn2)CC1`, -11%.
The result for `Cc1nc2ccccc2nc1CN(C)C1CCCN(c2cccnn2)C1` (configuration not stated) reads 4.32%.
`CN(C)c1ncccc1C(=O)N1CCCN(c2cccnn2)CC1`: the cytotoxicity at 70.5 h is -6.59%.
As to `O=C(c1cccnc1O)N1CCCN(c2cccnn2)CC1`, the cytotoxicity at 70.5 h was -9.98%.
Turning to `O=C(NCc1ccc(Br)cc1)NCC1CCOC1` (configuration not stated), the cytotoxicity at 70.5 h is -10.4%.
Consider `CN(Cc1ncc(C(C)(C)C)o1)CC1CCCN1c1cccnn1` (configuration not stated), for which the cytotoxicity at 70.5 h came to 23.4%.
Take `Cc1cc(NC(=O)C(C)N2CCN(c3nc(C)ns3)CC2)on1` (configuration not stated): the cytotoxicity at 70.5 h was determined as 4.54%.
For `CCc1nc(CN2CCCN(C(=O)COC(C)C)CC2)cs1`, the cytotoxicity at 70.5 h came out at 2.07%.
Consider `CN(Cc1nnc(C2CC2)o1)CC1CCCN1c1cccnn1` (configuration not stated), for which the cytotoxicity at 70.5 h is -9.18%.
As for `Cc1nc(CN2CCCN(C(=O)COCC3CC3)CC2)cs1`, the cytotoxicity at 70.5 h was -2.01%.
`CN(Cc1ccsc1)C(=O)CN1CCCC1Cn1cccn1` (configuration not stated): the cytotoxicity at 70.5 h was -13.8%.
As to `CCc1nc(C2CCCN2Cc2nc3ccccc3o2)no1` (configuration not stated), the cytotoxicity at 70.5 h was -17.9%.
Under `CCc1nc(C2CCCN2Cc2nnc(Cc3ccccc3)o2)no1` (configuration not stated) stands -10.8%; under `CN(Cc1ccco1)C(=O)CN1CCCCC1Cn1cccn1` (configuration not stated), -12.4%; under `Cn1cc(-c2nc(CNCCn3cccn3)cs2)cn1`, 12.5%.
Regarding `Cc1n[nH]c(=O)c2c(NC(=O)CN3CCCC(C(F)(F)F)C3)oc(C)c12` (configuration not stated), the cytotoxicity at 70.5 h was determined as 15.7%.
Regarding `COC(=O)COc1cccc(NS(=O)(=O)c2cc(C(=O)O)cs2)c1`, the cytotoxicity at 70.5 h was 10.9%.
On to `COc1ccc(S(N)(=O)=O)cc1C(=O)N(C)Cc1cc(C)on1`, for which the cytotoxicity at 70.5 h came out at 24.6%.
Regarding `Cc1ccsc1CN(C)Cc1nc2c(cnn2C)c(=O)[nH]1`, the cytotoxicity at 70.5 h is -7.29%.
Under `CC(C)(C)c1cn2nc(N3CCOC(Cn4cncn4)C3)sc2n1` (configuration not stated) stands -15.9%.
With `CC(C)(C)C(O)CN1CCN(C(=O)c2cccc3ncccc23)CC1` (configuration not stated), the cytotoxicity at 70.5 h was 20.7%.
The result for `Cn1nc2c(cc1=O)CN(Cc1nnc(-c3ccc(F)cc3)o1)CC2` reads -22.9%.
Consider `CCSCCC(=O)NS(=O)(=O)c1ccc2c(c1)OCCO2`, for which the cytotoxicity at 70.5 h was -13.7%.
Take `O=C(CSc1ccc(F)c(F)c1)NS(=O)(=O)c1ccc2c(c1)OCCO2`: the cytotoxicity at 70.5 h was -14%.
For `CCc1nc(CN2CCN(C(=O)C3CCCCC3)CC2)cs1`, the cytotoxicity at 70.5 h was -12.3%.
Take `CCc1nc(CN2CCCN(C(=O)c3c(C)noc3C)CC2)cs1`: the cytotoxicity at 70.5 h was -12.9%.
